Target: ATX (human His-tagged) (Homo sapiens (Human), UniProt Q13822)
Test: Human ATX enzyme inhibition assay (fluorescence quenching, MR121 substrate)
Type: biochemical
Conditions: inhibitory activity against ATX; 30 nM ATX, 1 μM MR121 substrate, 30° C.
Description: Human ATX Enzyme Inhibition Assay
ATX inhibition was measured by a fluorescence quenching assay using a specifically labeled substrate analogue (MR121 substrate). To obtain this MR121 substrate, BOC and TBS protected 6-amino-hexanoic acid (R)-3-({2-[3-(2-{2-[2-(2-amino-ethoxy)-ethoxy]-ethoxy}-ethoxy)-propionylamino]-ethoxy}-hydroxy-phosphoryloxy)-2-hydroxy-propyl ester (Ferguson et al., Org Lett 2006, 8 (10), 2023) was labeled with MR121 fluorophore (CAS 185308-24-1, 1-(3-carboxypropyl)-11-ethyl-1,2,3,4,8,9,10,11-octahydro-dipyrido[3,2-b:2′,3′-i]phenoxazin-13-ium) on the free amine of the ethanolamine side and then, after deprotection, subsequently with tryptophan on the side of the aminohexanoic acid.
Assay working solutions were made as follows:
Assay buffer (50 mM Tris-HCl, 140 mM NaCl, 5 mM KCl, 1 mM CaCl2, 1 mM MgCl2, 0.01% Triton-X-100, pH 8.0;
ATX solution: ATX (human His-tagged) stock solution (1.08 mg/mL in 20 mM bicine, pH 8.5, 0.15 M NaCl, 10% glycerol, 0.3% CHAPS, 0.02% NaN3), diluted to 1.4-2.5× final concentration in assay buffer;
MR121 substrate solution: MR121 substrate stock solution (800 μM MR121 substrate in DMSO), diluted to 2-5× final concentration in assay buffer.
Test compounds (10 mM stock in DMSO, 8 μL) were obtained in 384 well sample plates (Corning Costar #3655) and diluted with 8 μL DMSO. Row-wise serial dilutions were made by transferring 8 μL cpd solution to the next row up to […]. The compound and control solutions were mixed five times and 2 μL were transferred to 384 well assay plates (Corning Costar #3702). Then, 15 μL of 41.7 nM ATX solution was added (30 nM final concentration), mixed five times and then incubated for 15 minutes at 30° C. 10 μL of MR121 substrate solution was added (1 μM final concentration), mixed 30 times and then incubated for 15 minutes at 30° C. Fluorescence was then measured every 2 minutes for 1 hour (Perkin Elmer plate: vision multimode reader); light intensity: 2.5%; exp. time: 1.4 sec, Filter: Fluo_630/690 nm) and IC50 values were calculated from these readouts.

Structure (SMILES)	IC50 [µM]
O=C(CCc1ccc(OC(F)F)c(F)c1)N1CCc2cc(C(=O)N3CCc4[nH]nnc4C3)nn2CC1 [Example 26, 3-[4-(difluoromethoxy)-3-fluorophenyl]-1-[2-(1,4,6,7-tetrahydrotriazolo[4,5-c]pyridine-5-carbonyl)-4,5,7,8-tetrahydropyrazolo[1,5-d][1,4]diazepin-6-yl]propan-1-one]	0.016
O=C(OCc1ccc(F)cc1)N1CCc2cc(C(=O)N3CCc4[nH]nnc4C3)nn2CC1 [Example 28, 4-fluorobenzyl 2-(4,5,6,7-tetrahydro-1H-[1,2,3]triazolo[4,5-c]pyridine-5-carbonyl)-7,8-dihydro-4H-pyrazolo[1,5-d][1,4]diazepine-6(5H)-carboxylate]	0.076
COc1ccc(COC(=O)N2CCc3cc(C(=O)N4CCc5[nH]nnc5C4)nn3CC2)cc1F [Example 32, 3-fluoro-4-methoxybenzyl 2-(4,5,6,7-tetrahydro-1H-[1,2,3]triazolo[4,5-c]pyridine-5-carbonyl)-7,8-dihydro-4H-pyrazolo[1,5-d][1,4]diazepine-6(5H)-carboxylate]	0.03
COc1ccc(COC(=O)N2CCc3cc(C(=O)N4CCc5[nH]nnc5C4)nn3CC2)c(C)c1 [Example 33, 4-methoxy-2-methylbenzyl 2-(4,5,6,7-tetrahydro-1H-[1,2,3]triazolo[4,5-c]pyridine-5-carbonyl)-7,8-dihydro-4H-pyrazolo[1,5-d][1,4]diazepine-6(5H)-carboxylate]	0.094
O=C(OCc1ccc(C2CC2)cc1)N1CCc2cc(C(=O)N3CCc4[nH]nnc4C3)nn2CC1 [Example 34, 4-cyclopropylbenzyl 2-(4,5,6,7-tetrahydro-1H-[1,2,3]triazolo[4,5-c]pyridine-5-carbonyl)-7,8-dihydro-4H-pyrazolo[1,5-d][1,4]diazepine-6(5H)-carboxylate]	0.007
O=C(OCc1ccc(OC(F)(F)F)cc1F)N1CCc2nc(C(=O)N3CCc4[nH]nnc4C3)nn2CC1 [Example 35, [2-fluoro-4-(trifluoromethoxy)phenyl]methyl 2-(1,4,6,7-tetrahydrotriazolo[4,5-c]pyridine-5-carbonyl)-5,6,8,9-tetrahydro-[1,2,4]triazolo[1,5-d][1,4]diazepine-7-carboxylate]	0.013
O=C(OCc1ccc(OC(F)(F)F)c(F)c1)N1CCc2nc(C(=O)N3CCc4[nH]nnc4C3)nn2CC1 [Example 36, [3-fluoro-4-(trifluoromethoxy)phenyl]methyl 2-(1,4,6,7-tetrahydrotriazolo[4,5-c]pyridine-5-carbonyl)-5,6,8,9-tetrahydro-[1,2,4]triazolo[1,5-d][1,4]diazepine-7-carboxylate]	0.006
O=C(OCc1ccc(OC(F)(F)F)c(Cl)c1)N1CCc2cc(C(=O)N3CCc4[nH]nnc4C3)nn2CC1 [Example 37, 3-chloro-4-(trifluoromethoxy)benzyl 2-(4,5,6,7-tetrahydro-1H-[1,2,3]triazolo[4,5-c]pyridine-5-carbonyl)-7,8-dihydro-4H-pyrazolo[1,5-d][1,4]diazepine-6(5H)-carboxylate]	0.009
COc1cc(OC(F)(F)F)ccc1COC(=O)N1CCc2cc(C(=O)N3CCc4[nH]nnc4C3)nn2CC1 [Example 38, 2-methoxy-4-(trifluoromethoxy)benzyl 2-(4,5,6,7-tetrahydro-1H-[1,2,3]triazolo[4,5-c]pyridine-5-carbonyl)-7,8-dihydro-4H-pyrazolo[1,5-d][1,4]diazepine-6(5H)-carboxylate]	0.021
O=C(OCc1ccc(OCC(F)(F)F)cc1)N1CCc2cc(C(=O)N3CCc4[nH]nnc4C3)nn2CC1 [Example 40, 4-(2,2,2-trifluoroethoxy)benzyl 2-(4,5,6,7-tetrahydro-1H-[1,2,3]triazolo[4,5-c]pyridine-5-carbonyl)-7,8-dihydro-4H-pyrazolo[1,5-d][1,4]diazepine-6(5H)-carboxylate]	0.017
O=C(OCc1ccc(OC(F)(F)F)c(Cl)c1)N1CCc2nc(C(=O)N3CCc4[nH]nnc4C3)nn2CC1 [Example 41, [3-chloro-4-(trifluoromethoxy)phenyl]methyl 2-(1,4,6,7-tetrahydrotriazolo[4,5-c]pyridine-5-carbonyl)-5,6,8,9-tetrahydro-[1,2,4]triazolo[1,5-d][1,4]diazepine-7-carboxylate]	0.006
O=C(OCc1ccc(OC(F)(F)F)c(Cl)c1)N1CCc2nc(C(=O)N3CCc4[nH]nnc4C3)cn2CC1 [Example 42, [3-chloro-4-(trifluoromethoxy)phenyl]methyl 2-(1,4,6,7-tetrahydrotriazolo[4,5-c]pyridine-5-carbonyl)-5,6,8,9-tetrahydroimidazo[1,2-d][1,4]diazepine-7-carboxylate]	0.007
O=C1N[C@@H]2CCN(C(=O)c3nc4n(n3)CCN(C(=O)OCc3ccc(OC(F)(F)F)c(F)c3)CC4)C[C@H]2O1 [Example 43, 3-fluoro-4-(trifluoromethoxy)benzyl 2-((3aR,7aR)-2-oxooctahydrooxazolo[5,4-c]pyridine-5-carbonyl)-8,9-dihydro-5H-[1,2,4]triazolo[1,5-d][1,4]diazepine-7(6H)-carboxylate]	0.056

The remaining lines, values ahead:

IC50 [µM]	Structure (SMILES)
0.009	O=C(c1cc(OCC2CCOCC2)nc(C2CC2)c1)N1CCc2cc(C(=O)N3CCc4[nH]nnc4C3)nn2CC1 [Example 24, (6-(2-cyclopropyl-6-((tetrahydro-2H-pyran-4-yl)methoxy)isonicotinoyl)-5,6,7,8-tetrahydro-4H-pyrazolo[1,5-d][1,4]diazepin-2-yl)(6,7-dihydro-1H-[1,2,3]triazolo[4,5-c]pyridin-5(4H)-yl)methanone]
0.007	O=C(/C=C/c1ccc(OC(F)F)c(F)c1)N1CCc2cc(C(=O)N3CCc4[nH]nnc4C3)nn2CC1 [Example 25, (E)-3-[4-(difluoromethoxy)-3-fluorophenyl]-1-[2-(1,4,6,7-tetrahydrotriazolo[4,5-c]pyridine-5-carbonyl)-4,5,7,8-tetrahydropyrazolo[1,5-d][1,4]diazepin-6-yl]prop-2-en-1-one]
0.052	COc1ccc(COC(=O)N2CCc3cc(C(=O)N4CCc5[nH]nnc5C4)nn3CC2)cc1 [Example 27, 4-methoxybenzyl 2-(4,5,6,7-tetrahydro-1H-[1,2,3]triazolo[4,5-c]pyridine-5-carbonyl)-7,8-dihydro-4H-pyrazolo[1,5-d][1,4]diazepine-6(5H)-carboxylate]
0.038	O=C(OCc1cccc(F)c1)N1CCc2cc(C(=O)N3CCc4[nH]nnc4C3)nn2CC1 [Example 29, 3-fluorobenzyl 2-(4,5,6,7-tetrahydro-1H-[1,2,3]triazolo[4,5-c]pyridine-5-carbonyl)-7,8-dihydro-4H-pyrazolo[1,5-d][1,4]diazepine-6(5H)-carboxylate]
0.041	O=C(OCc1ccc(F)c(F)c1)N1CCc2cc(C(=O)N3CCc4[nH]nnc4C3)nn2CC1 [Example 30, (3,4-difluorophenyl)methyl 2-(1,4,6,7-tetrahydrotriazolo[4,5-c]pyridine-5-carbonyl)-4,5,7,8-tetrahydropyrazolo[1,5-d][1,4]diazepine-6-carboxylate]
0.022	O=C(OCc1ccc(OC(F)F)c(F)c1)N1CCc2cc(C(=O)N3CCc4[nH]nnc4C3)nn2CC1 [Example 31, 4-(difluoromethoxy)-3-fluorobenzyl 2-(4,5,6,7-tetrahydro-1H-[1,2,3]triazolo[4,5-c]pyridine-5-carbonyl)-7,8-dihydro-4H-pyrazolo[1,5-d][1,4]diazepine-6(5H)-carboxylate]
0.014	Cc1cc(OC(F)(F)F)ccc1COC(=O)N1CCc2cc(C(=O)N3CCc4[nH]nnc4C3)nn2CC1 [Example 39, 2-methyl-4-(trifluoromethoxy)benzyl 2-(4,5,6,7-tetrahydro-1H-[1,2,3]triazolo[4,5-c]pyridine-5-carbonyl)-7,8-dihydro-4H-pyrazolo[1,5-d][1,4]diazepine-6(5H)-carboxylate]
